# From US20170281772A1, “A NEURAL SUBSTRATE FOR SUGAR PREFERENCE” (The Trustees of Columbia University in the City of New York, priority 2014, published 2017)
# “Also recorded” adds a separate entry of the source.
# Assays:
# [1] = test system: activity in the cNST; experiment: silencing of cNST activity by cannula injection during sucrose exposure, sugar preference formation; assay type: in vivo
# Text: When given a choice between highly concentrated artificial sweetener and a low concentration of natural sweet, animals consume the sweeter substance. However, after one exposure to natural sugar, animals switch their preference to the natural sweet (See FIG. 5). If the cNST is indeed an essential brain center for establishing sugar preference, a prediction would be that silencing the activity of the neurons in this nucleus during exposure to sugar should prevent a preference from forming. To determine if this is the case, applicants implanted a cannula above the cNST of naive animals, waited 2 weeks for recovery, and then assessed the ability of these animals to form a sugar preference. […] Prior to receiving sugar in their home cage, animals were injected with a glutamate receptor antagonist (50 nL of NBQX, […]) to reversibly silence activity in the cNST.
# [2] = consumption trials of sucralose with or without MDG in a satiated animal; assay type: in vivo; conditions: 32 mM sucralose+0.4 M MDG vs 32 mM sucralose alone, 20 trials
# Protocol: A satiated animal was given 32 mM sucralose for the first 11 trials, and then given either 32 mM sucralose alone, or 32 mM sucralose+0.4 M MDG. […] Shown are 20 trials.
# [3] = two-solution preference behavioral assay, artificial sweetener (AceK) versus sucrose, naive animals; assay type: in vivo, mice
# Text: To explicitly test for sugar preference in mice, applicants developed a simple behavioral assay.
# During five minute trials, two groups of five naive animals were presented with an intensely sweet, artificial compound (Acesulfame potassium or AceK) and a less sweet natural sugar (sucrose) . […] Animals were then returned to their home cage and given access to either artificial sweetener (Group 1) or natural sugar (Group 2) for one hour. […] Twenty four hours later, Group 1 was given natural sugar while Group 2 was given artificial sweetener.
# [4] = test system: neurons in the caudal nucleus of the solitary tract (cNST); experiment: cFos staining of the caudal nucleus of the solitary tract after drinking the solution; assay type: in vivo, mice; conditions: for cFos labeling of cNST neurons: wild-type animals, water deprived thirty-six hours, 1 mL solution by drinking
# Protocol: To determine where sugar preference is encoded, applicants screen brain regions for increased expression of Fos, a proxy for neural activity, in animals challenged with sugar but not water or artificial sweetener.
# Wild-type animals were water deprived for thirty-six hours and then given access to 1 mL solution of water (FIG. 3A), sucrose (FIG. 3), or artificial sweetener (FIG. 3C). Tasteless (TrpM5 knockout) animals were given water (FIG. 3D) or sucrose (FIG. 3E), The caudal nucleus of the solitary tract was analyzed using cFos staining. […] Green: c-fos antibody staining. Magenta: a neural stain (neurotrace) (FIG. 3A-3D).
# [5] = test system: neurons in the caudal nucleus of the solitary tract (cNST); experiment: cFos staining of the nucleus of the solitary tract after direct infusion to the gut; assay type: in vivo; conditions: for Fos expression in the cNST when gavaged: gavage, compared with animals drinking the same solution; for cFos labeling of cNST neurons after gut infusion: wild type animals, 0.5 mL infused directly into the gut
# Protocol: Wild type animals were infused directly into the gut with 0.5 mL of water (FIG. 4A), sucrose (FIG. 4B), or artificial sweetener (FIG. 4C). […] Green: c-fos antibody staining. Magenta; a neural stain (neurotrace) (FIG. 4A-4C).
smiles,measurement,setting,value
NS(=O)(=O)c1cccc2c1c([N+](=O)[O-])cc1nc(O)c(O)nc12 [NBQX],formation of sugar preference with the cNST silenced,"[1]; 50 nL of NBQX, 5 pg/mL, injected above the cNST prior to sugar in home cage, tested twenty-four hours later",continued to prefer the artificial sweetener
same,sugar preference formation after washout,[1]; after the drug washed out,regained their ability to form a preference
same,effect of silencing on sweet taste,"[1]; short-access assays, same animals",does not abolish sweet taste
"COC1OC(CO)C(O)C(O)C1O [MDG, Alpha-Methyl-D-Glucopyranose]",appetitiveness/consumption of sucralose,[2],dramatically increases the appetitiveness/consumption of sucralose; also recorded: transforms a sucralose solution into the preferred Artificial Sweetener
"CC1=CC(=O)NS(=O)(=O)O1 [AceK, Acesulfame potassium]","initial consumption, AceK versus sucrose","[3]; five minute trials, naive animals, before home-cage exposure",much more AceK than sucrose
same,cFos labeling of cNST neurons,[4],almost no labeled cells at all
same,Fos expression in the cNST when gavaged,[5],identical
same,cFos labeling of cNST neurons after gut infusion,[5],almost no labeled cells at all
OC[C@H]1O[C@@](CO)(O[C@H]2O[C@H](CO)[C@@H](O)[C@H](O)[C@H]2O)[C@@H](O)[C@@H]1O [sucrose],preference between artificial sweetener and sucrose after exposure to sucrose,"[3]; after one hour home-cage access to natural sugar, final preference test",animals change preference between artificial sweetener and sucrose after one exposure to sucrose; also recorded: both groups prefer the natural sugar
same,cFos labeling of cNST neurons in tasteless animals,"[4]; TrpM5 knockout animals, compared with wild type",identical pattern of labeling
same,cFos labeling of cNST neurons,[4],robustly labeled
same,Fos expression in the cNST when gavaged,[5],identical
same,cFos labeling of cNST neurons after gut infusion,[5],robustly labeled
